Test results as given in patent publication US20200270309A1, “MALEIMIDE GROUP-MODIFIED ANGIOGENESIS INHIBITOR HM-1 AND USE THEREOF” (NANJING ANJI BIOLOGICAL TECHNOLOGY CO., LTD, priority 2017, published 2020).
Peptide text beside a SMILES is read from it. * marks the point of attachment. X66 = O=C1C=CC(=O)N1c1cccc(CCCCCCCC(=O)*)c1

System: xylene-induced ear swelling
Experiment: Xylene-induced mouse ear swelling
Type: in vivo
Conditions: Kunming mice, dose 2 mg/kg, injected once a day for 5 days
Procedure: Kunming mice were taken, a normal saline group was taken as a blank control group, an aspirin group (200 mg/kg) was taken as a positive control group, and X1-X90 administration groups were taken as test groups. The mice were injected once a day for 5 consecutive days. The blank control group was given an equal volume of normal saline. One hour after the last administration, 0.05 mL of xylene was applied to both sides of the right ear of each mouse to cause inflammation, while no drug was applied to the left ear as a normal ear. Two hours later, the mice were put to death by dislocation. Two ears were cut along the auricle. Ear pieces were taken with a puncher and weighed, and the swelling degree and the swelling rate were calculated. Swelling degree=right ear piece weight-left ear piece weight, swelling rate=(swelling degree/left ear piece weight)*100%. Statistical t-test was conducted on the experimental results. *P<0.05 indicates significant difference, and **P<0.01 indicates extremely significant difference.

## C[C@H](NC(=O)CNC(=O)[C@H](CCCNC(=N)N)NC(=O)CCCCCCCc1cccc(N2C(=O)C=CC2=O)c1)C(=O)N[C@@H](CC(=O)O)C(=O)N[C@@H](CCCNC(=N)N)C(=O)N[C@@H](C)C(=O)NCC(=O)NCC(=O)NCC(=O)NCC(=O)N[C@@H](CCCNC(=N)N)C(=O)NCC(=O)N[C@@H](CC(=O)O)C(=O)O [X31] (X66-RGADRAGGGGRGD-OH)
Right minus left ear piece weight 2 h after xylene
  Swelling degree: 3.16 ± 0.55 mg
xylene-induced ear swelling
  Inhibition rate (%): 16.85%
